In one data set the test system is IP3R. Particulars: background statement, MT destabilizing or stabilizing agents; cited from earlier work.
For the next data set, the system named is HMVECs. Kind of data set: Thrombin-induced Ca2+ release from stores in HMVECs (Fura 2-AM 340/380 ratio). The note with it: 5 μg/ml taxol for 20 min prior to thrombin stimulation. Type of data set: cell-based. As for the experimental part:
A. HMVECs pre-treated with AP-attached IP3R3 peptide or control (AP) peptide were loaded with Fura 2-AM and 340/380 ratio was calculated after stimulation of cells with thrombin (50 nM) in the absence and in the presence of extracellular Ca^2+. Arrow, time of thrombin addition. […] The increase is normalized to control non-treated cells from the same experiment (n=4).
The effects of IP3R peptide and taxol were compared in regulating Ca^2+ release.

For a further data set, the system named is lung injury. Particulars: background statement; cited from earlier work.
Another data set concerns LPS-induced sepsis. Kind of data set: Survival in LPS-induced murine model of sepsis. Type of data set: in vivo, mice. The note with it: for survival rate, LPS LD90, pre-treatment with Myr-EBIN: Myr-EBIN 1 microM/kg i.v. 30 min prior, 1 hr and 24 hrs after LPS. As for the experimental part: (n=11-15 mice/group, p<0.001 AP-IP3R3 vs control treatment (AP control) by ANOVA. Mice were anesthetized prior to retro-orbital i.v. injection of IP3R3 with a mixture of ketamine, 10 mg/ml; xylazine, 0.25 mg/ml and acepromazine, 0.25 mg/ml.
CD-1 mice treated with indicated doses of IP3R3 peptide were i.p. injected with LPS at LD80 dose (50 mg/kg LPS) and were monitored for 5 days. Survival rate (%) was plotted vs. peptide dose in logarithm scale. The sigmoidal dose-response curve was fitted to the data points. n=10 mice/group. Mice were anesthetized prior to retro-orbital injection of peptide with 2.5% isoflurane in room air in an anesthesia induction chamber. Anesthesia was maintained during i.v. injection using a specially designed rodent facemask with a coaxial tube (Harvard Apparatus, AH 72-3026).
Male CD1 mice were challenged by intraperitoneal (i.p.) injection of LD90 doses of LPS. The experimental and control groups received retro-orbital, intravenous (i.v.) injection of EBIN attached to the C-terminus of cell permeant antennapedia peptide (AP) or AP alone at a concentration of 1 microM/kg. Mice were injected tree times, 30 minutes prior to and 1 hr and 24 hrs after LPS administration. Mice were anesthetized prior to retro-orbital injection with a mixture of ketamine (10 mg/ml), xylazine (0.25 mg/ml), and acepromazine (0.25 mg/ml).
FIG. 19 compares the effect of pre- and post treatment with EBIN (SEQ ID NO: 3) on lethality from LPS-induced sepsis. […] Male CD1 mice were challenged by intraperitoneal (i.p.) injection of LD90 doses of LPS. The experimental and control groups received tail vein (i.v.) injection of Myr-EBIN 30 min prior (pre-treatment) or 30 min after (post-treatment) LPS or Myr-control loss-of-binding peptide at a concentration of 1 microM/kg. Pre-treatment group, mice were injected tree times, 30 minutes prior to and 1 hr and 24 hrs after LPS administration; treatment group, mice were injected two times, 30 minutes and 24 hrs after LPS administration. Mice were anesthetized prior to retro-orbital injection with a mixture of ketamine (10 mg/ml), xylazine (0.25 mg/ml), and acepromazine (0.25 mg/ml).
The pharmacological effect of IP3R3 peptide was tested in LPS-induced murine model of sepsis. Male CD1 mice were challenged by intraperitoneal injection (i.p.) of LPS (30 mg/kg body weight) and infiltration of neutrophils in lung, a measure of lung inflammation was determined. Lungs were perfused with PBS, weighed, frozen and used for measuring lung myeloperoxidase (MPO) activity, signature of activated neutrophils. […] Furthermore, it was determined whether IP3R3 peptide protects from polymicrobial sepsis induced by cecal ligation and puncture (CLP). CLP causes lethal peritonitis that is accompanied by acute lung injury (ALI). It is well-excepted and clinically relevant method in experimental rodents.
The dose-response of IP3R3 peptide was further tested in LPS-induced murine model of sepsis. Male CD1 mice were challenged by i.p. injection of LPS at LD80 dose. Mice received a retro-orbital i.v. injection of IP3R3 peptide at doses 0.01, 0.033, 0.1, 0.33, 1.0, 3.3 and 10 μM per kg of the body weight. Mice were injected with IP3R3 peptide three times, 30 minutes prior to, and 1 and 24 hrs after LPS administration. A percent of survived animals in each group was plotted as a function of IP3R3 dose. […] The ED50 (effective dose, 50%) as 80 nM/kg was calculated using a three-parameter logistic equation: y=min+([…])/1+10^LogED50-x Where min and max are minimum and maximum of response.
The effect of EBIN on mortality rate from LPS-induced sepsis was determined. Mice received i.v. retro-orbital injection of AP-EBIN or AP control peptide, 30 minutes prior to and 1 hr after LPS administration at LD90 dose. […] In this experiment, Myr-EBIN was injected in tail vein 30 min and 24 hrs after LPS challenged. […] It is concluded that administration of EBIN prior to systemic inflammation has much higher beneficial outcome.

The target in the next data set is T1, EB3/IP3R3 interaction (Homo sapiens, UniProt Q9UPY8).
T1 construct: HPAECs pretreated with 1 μM AP-EBIN or control peptide (AP) were challenged with 50 nM thrombin; endogenous in cells; host or cells: HPAEC (human pulmonary aorta endothelial cells)
T1 sequence (Q9UPY8 whole entry): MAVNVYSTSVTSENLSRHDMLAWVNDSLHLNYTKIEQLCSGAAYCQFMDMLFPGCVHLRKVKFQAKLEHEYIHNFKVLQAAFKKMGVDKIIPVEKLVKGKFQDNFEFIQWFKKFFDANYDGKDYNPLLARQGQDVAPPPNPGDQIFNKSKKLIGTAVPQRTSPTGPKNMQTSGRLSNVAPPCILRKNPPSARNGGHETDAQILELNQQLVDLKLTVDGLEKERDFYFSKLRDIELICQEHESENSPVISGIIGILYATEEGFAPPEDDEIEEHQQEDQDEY
Kind of data set: EB3-IP3R3 interaction by immunoprecipitation/Western blot in HPAECs challenged with thrombin. It counts as cell-based. Particulars: HPAECs pretreated with 1 μM AP-EBIN; 50 nM thrombin. The protocol: HPAECs pretreated with 1 μM AP-EBIN or control peptide (AP) were challenged with 50 nM thrombin. The interaction between EB3 and IP3R3 was analyzed at different time-points after thrombin stimulation. EB3 was immune-precipitated with specific Abs and resulted precipitates were probed for EB3 and IP3R3.
(§1) To determine the inhibitory properties of EBIN in cells, Human Pulmonary Aorta Endothelial Cell (HPAECs) monolayers pretreated with EBIN or with a control peptide at the concentration of 1 μM were challenged with thrombin. The interaction between EB3 and IP3R3 receptor was analyzed using a Western Blot analysis. […] EBIN but not a control peptide mitigated agonist-induced increase in intracellular calcium. [Ca2-F]i transient after stimulation of HPAEC monolayers with pro-inflammatory cytokines.
(In general: Immunoblotting shows a protein as a band on a membrane.)

The subject of data set [1] is HPAECs. Kind of data set: Agonist-induced intracellular calcium transient in HPAEC monolayers (Fura-2 340/380). It counts as cell-based, Human. Particulars: 1 μM Myr-peptide, 50 nM thrombin or 90 μM histamine. The protocol:
[Ca2+]i transient after stimulation of HPAEC monolayers with 50 nM thrombin (A) or 90 μM histamine (B). Mean value; n=20 cells. Arrow, time of stimulation.
as §1
Background: Calcium flux is commonly read through the fluorescence of an indicator in the cells.

The test system of data set [2] is HPAECs. Kind of data set: NO production in HPAECs (porphyrinic NO electrodes). Type of data set: cell-based, Human. The note with it: first 20 min. The protocol: HPAECs were pretreated with control peptide (loss-of-activity) or Myr-EBIN and basal (A, in response to addition of L-arginin) and agonist-induced (B, thrombin and histamine) NO production was measured for the first 20 min stimulation.
(§2) The activity of nitric oxide synthase 3(eNOS), an endothelial-specific enzyme that produces NO, is regulated by calcium signaling, particularly, through eNOS interaction with calmodulin, and is a known cause of hyperpermeability of endothelial barrier during inflammation. Because EBIN inhibits calcium signaling it was postulated that the barrier-protective effect of EBIN, in part, is due to inhibition of eNOS. Therefore, the effect of EBIN on basal and agonist-induced production of NO was measured. NO formation was measured using porphyrinic NO electrodes coupled to a FAS1 femtostat and a personal computer with electrochemical software (Gamry Instruments). The electrode current, which is proportional to NO concentration, was measured as a function of time.

Data set [3] relates to histamine-induced vasodilation. Kind of data set: Awake blood pressure measurement in mice, histamine-induced vasodilation. It counts as in vivo. Particulars: AP-EBIN 1 μM/kg i.v. As for the experimental part:
Awake Blood Pressure Measurement in Mice-Mice were anesthetized and surgically prepared for placement of arterial (carotid) and venous (external jugular) catheters. One hour after surgery the blood pressure was monitored directly using a pressure transducer. Subsequent intravenous (i.v.) injections of AP-EBIN peptide (1 μM/kg body weight; green) or control AP peptide (red) and histamine (10 mg/kg body weight) were performed through jugular vein catheter; the arrow indicates the time of injection.
as §2

Data set [4] concerns IgE-mediated anaphylactic reaction. Kind of data set: Subcutaneous vascular leak (Evans Blue) following IgE-mediated anaphylactic reaction. It counts as in vivo. Particulars: mice, intradermal IgE-HSA, HSA challenge 24 hr later; Myr-peptide 1 μM/kg i.v. 30 min prior to HSA. The protocol:
Mice received intradermal injection of IgE-HSA in the ear (A) and back (B) and 24 hr later, iv injection of Evans Blue and HSA (1-3) or saline (4-5). Groups 1 and 4 received saline, 2—control peptide (loss-of-binding) and 3 and 5—Myr-EBIN iv injection (1 μM/kg) 30 min prior to HSA. […] C. […] Evans Blue was extracted from ear tissue and Evans Blue concentration was measured at A=620 nm and normalized to the tissue weight. *, p<0.05, n=6 mice/group.
Airway microvascular hyperpermeability, the result of elevated plasma VEGF, is one of the critical factors contributing to abnormal airway function in patients with classic asthma and its cough variant. Because acute allergic asthmatic response is mainly due to IgE-mediated hypersensitivity, we also determined whether EBIN protects from subcutaneous vascular leak following an IgE-mediated anaphylactic reaction. […] These date indicate that EBIN might be effectively used to improve the lung function and overall health of patients with chronic or acute forms of allergic asthma, and curtail the asthmatic inflammatory response.

[5] abbreviates: 50 mg/kg LPS, vs loss-of-binding peptide.

“Also recorded” adds a separate entry of the source. Ends that are not written are not given here. Peptide text beside a SMILES is read from it. * marks the point of attachment. Myristoyl = CCCCCCCCCCCCCC(=O)*

Take `COc1cc2c(c(OC)c1OC)-c1ccc(OC)c(=O)cc1[C@@H](NC(C)=O)CC2` [colchicine]: the “IP3-gated release of Ca2+” value in the data set on IP3R was “inhibits IP3-gated release of Ca2+”.
Consider `CC(=O)O[C@H]1C(=O)[C@@]2(C)[C@H]([C@H](OC(=O)c3ccccc3)[C@]3(O)C[C@H](OC(=O)[C@H](O)[C@@H](NC(=O)c4ccccc4)c4ccccc4)C(C)=C1C3(C)C)[C@]1(OC(C)=O)CO[C@@H]1C[C@@H]2O` [taxol], for which the “release of Ca2+ from ER in response to thrombin” value in the data set with HMVECs was “inhibits release of Ca^2+ from ER to the same extent as IP3R3 peptide”. The “lung injury in mice models” value with lung injury is reported as “attenuate the lung injury”. Besides, the “IP3-gated release of Ca2+” value in the data set with IP3R was “inhibits IP3-gated release of Ca2+”.
FTEIPTI (EB binding peptide) [EBIN]: the “survival rate, LPS LD90, pre-treatment with Myr-EBIN” value with LPS-induced sepsis (setting [5]) is reported as “reduced mortality”. Also, the “survival rate, LPS LD90, post-treatment with Myr-EBIN” value in the data set on LPS-induced sepsis (50 mg/kg LPS, Myr-EBIN 1 microM/kg tail vein 30 min and 24 hrs after LPS, vs loss-of-binding peptide) is given as “insignificant improvement in survival rate; also recorded: some but not significant improvement of the survival”. In addition, the “survival / mortality, LPS LD90, AP-EBIN” value in the data set with LPS-induced sepsis (CD1 mice, 50 mg/kg LPS i.p., AP-EBIN 1 microM/kg retro-orbital i.v. starting 30 minutes prior to LPS, 120-hr, vs AP, 50 mg/kg) is recorded as “marked improvement in survival rate; also recorded: reduced mortality”. Besides, the “interaction between EB3 and IP3R3, basal and after thrombin” value in the data set with EB3/IP3R3 interaction was “attenuated basal and thrombin-induced interaction between EB3 and IP3R3; also recorded: markedly reduced”. In addition, the “agonist-induced increase in intracellular calcium ([Ca2+]i transient)” value with HPAECs [1] is given as “significantly inhibited the intracellular calcium flux”. Also, the “basal NO production” value in the data set on HPAECs [2] (response to L-arginin) was “no effect; also recorded: did not affect basal NO level”. Besides, in the data set on HPAECs [2] (thrombin and histamine), the “agonist-induced NO production” value is recorded as “significantly attenuated agonist-induced NO production”. In addition, in data set [3], the “baseline (systolic) blood pressure” value was “no effect on baseline blood pressure”. The “histamine-induced blood pressure drop / vasodilation” value in data set [3] (histamine 10 mg/kg i.v.) is recorded as “significantly inhibited histamine-induced vasodilation; also recorded: prevented blood pressure drop in response to histamine”. Moreover, the “subcutaneous vascular leak (Evans Blue) in ear and back” value in data set [4] was “significantly attenuates subcutaneous vascular leak; also recorded: significantly attenuated”.
Consider “Myr-EBIN: myristoylated EBIN (SEQ ID NO: 3) (Myristoyl-FTEIPTI)”, for which the “survival rate, LPS LD90, pre-treatment with Myr-EBIN” value in the data set on LPS-induced sepsis (setting [5]) is “significant increase”. Besides, in the data set with HPAECs [1], the “agonist-induced increase in intracellular calcium ([Ca2+]i transient)” value is given as “mitigates agonist-induced increase in intracellular calcium”.
`COC(=O)Nc1nc2ccc(C(=O)c3cccs3)cc2[nH]1` [nocodazole]: the “IP3-gated release of Ca2+” value with IP3R is reported as “inhibits IP3-gated release of Ca2+”.
For `CC[C@H](C)[C@H](NC(=O)[C@H](C)NC(=O)[C@@H](NC(=O)[C@@H]1CCCN1C(=O)[C@@H](NC(=O)[C@H](CCC(=O)O)NC(=O)[C@@H](NC(=O)[C@H](Cc1c[nH]c2ccccc12)NC(=O)[C@H](CC(C)C)NC(=O)[C@H](CCCNC(=N)N)NC(=O)[C@H](C)NC(=O)[C@H](Cc1ccccc1)NC(=O)[C@@H](N)CCCCN)[C@@H](C)O)[C@@H](C)CC)[C@@H](C)O)C(=O)N[C@H](C(=O)O)[C@@H](C)O` [IP3R3 peptide, KFARLWTEIPTAIT] (H-KFARLWTEIPTAIT-OH), the “survival / mortality, LD50 LPS challenge” value in the data set with LPS-induced sepsis (30 mg/kg LPS i.p., peptide i.v. 30 minutes prior to and 1 hr after LPS, vs AP control) is given as “marked improvement in survival rate; also recorded: mortality reduction”. For the same compound, in the data set on LPS-induced sepsis (mice, 0.01 to 10 μM per kg i.v., three injections), the “toxicity within the dose range” value is given as “low toxicity”.

Source of the values: patent US8912139B2, “Peptide compositions and methods for treating lung injury, asthma, anaphylaxis, angioedema, systemic vascular permeability syndromes, and nasal congestion” (The Board of Trustees of the University of Illinois, priority 2011, dated 2014).
